One series can be described thus: Lung S9 metabolism. The class given is in vitro ADME, human. Particulars: for Compound Remaining at 60 min (%): human lung S9, 1 μM compound, 1 mg/mL S9 protein, NADPH and PAPS; for Sulfate Appearance: qualitative, O-sulfate metabolite peak in human lung S9. Here is the method: The time 0, 15, 30, and 60 minute samples were analyzed for parent compound by high resolution LC-MS/MS. Lung S9 fractions from human (lot 1410245) were purchased from XenoTech LLC (Lenexa, Kans.). NADPH (Sigma Aldrich, N1630) and 3-phosphoadenosine 5-phosphosulfate (PAPS) (Sigma Aldrich, A1651) were purchased from Sigma Aldrich (St. Louis, Mo.). Acetonitrile and water were obtained from VWR (Radnor, Pa.) and were of HPLC grade or better. Raloxifene and formic acid was purchased from Sigma Aldrich (St. Louis, Mo.). Lung S9 incubations were performed in a water bath at 37° C. in a 96-well polypropylene plate. […] Louis, Mo.), 3 mM magnesium chloride (Sigma Aldrich, M1028) and in the presence of 100 μM PAPS (Sigma-Aldrich, St. […] Incubation volumes consisted of 400 μL and time points were taken at 0, 15, 30, and 60 minutes by the removal of a 70 μL aliquot and dilution into 140 μL acetonitrile (0% formic acid). All samples were centrifuged at 2250 g for 10 minutes at 5° C. Supernatant (50 μL) was taken from the centrifuged samples and diluted into 100 μL HPLC water containing internal standard. The samples were run on a Dionex Ultimate 3000 Auto sampler and analyzed using a Thermo Q-Exactive High Resolution Mass Spectrometer (Thermo, Waltham, Mass.) in Full Scan mode in conjunction with an Atlantis T3 column 3 μM−2.1×50 mm (Waters Inc., 186003717). Mobile Phase A consisted of Water+0.2% formic acid and Mobile Phase B consisted of acetonitrile+0.2% formic acid. Peak integration was accomplished using Gubbs GMSU software (Gubbs Inc., Alpharetta, Ga.). For each sample, peak area ratios were calculated by dividing the analyte peak area by the internal standard peak area. For each incubation, the peak area ratios of the analytes in each t0 was set to 100%, and the peak areas ratios from the 60 minute samples were converted to percentages remaining relative to the corresponding t0. Determination of sulfate metabolite formation was made qualitatively by observation of early-eluting peak in the parent ion channel which, based on historical internal data, corresponded to the O-sulfate metabolite of each parent compound.

Series [1] deals with IFNγ secretion in mixed lymphocyte reaction. In words: Inhibition of IFNγ secretion in a mixed lymphocyte reaction assay. The series is classed as cell-based, human. The note with it: summary statement. Here is the method: The mixed lymphocyte reaction assay is an in-vitro assay that mimics transplant rejection. T cells from one donor are cultured with allogeneic dendritic cells from another donor. This reaction induces a cellular immune response such as IFNγ secretion. CD14+ monocytes were isolated from human whole blood (Stanford blood center) of donor A using a ficoll gradient and magnetic seperation (CD14 microbeads, Miltenyi). […] Cells were harvested, washed with media, re-suspended to 400,000 cells/ml in media and plated at 10,000 cells/well/25 μl. CD4+ T cells were freshly isolated from human whole blood (Stanford blood center) of donor B using a ficoll gradient and magnetic separation (CD4+ T cell isolation kit, Miltenyi). T cells were re-suspended to 4,000,000 cells/ml in RPMI (Life Technologies) supplemented with 10% Fetal Bovine Serum (FBS, Life Technologies), 2 mM Glutamax (Life Technologies), 25 mM HEPES (Life Technologies) and 1× Pen/Strep (Life Technologies). CD4+ T cells were mixed with the dendritic cells at 100,000 cells/well/25p. […] On day 5, supernatants were collected and measured for interferon gamma (INFγ) using enzyme linked immunosorbent assay (ELISA). Percent inhibition was determined by compound inhibitory potency against IFNγ secretion compared to vehicle treated cells. […]

Series [2] is described as follows: Pharmacokinetics in plasma and lung in mouse. Particulars: single oral aspiration, 0.2 mg/mL, 50 μL. The series is classed as in vivo. The protocol:
Plasma and lung concentrations of test compounds and ratios thereof were determined in the following manner. BALB/c mice from Charles River Laboratories were used in the assay. Test compounds were individually formulated in 20% propylene glycol in pH 4 citrate buffer at a concentration of 0.2 mg/mL and 50 μL of the dosing solution was introduced into the trachea of a mouse by oral aspiration. At various time points (typically 0.167, 2, 6, 24 hr) post dosing, blood samples were removed via cardiac puncture and intact lungs were excised from the mice.

Another series has as its target human JAK1 (Homo sapiens (Human), UniProt P23458). In words: Co-crystal structure with JAK1. Particulars: resolution 2.28 Å. The text has this: A co-crystal structure was obtained of compound C-1 bound to human JAK1 at a resolution of 2.28 Å. […] Seven specific hydrogen bonding interactions were identified based upon a distance of 3.5 Å or less between donor and acceptor atoms. Of particular note, a hydrogen bonding interaction was identified between the carbonyl of the exocyclic amide of the compound of C-1 and the sidechain of Arg879 of JAK1. A similar interaction can be expected for the compounds of the invention.

Sequence of human JAK1 (P23458 whole entry): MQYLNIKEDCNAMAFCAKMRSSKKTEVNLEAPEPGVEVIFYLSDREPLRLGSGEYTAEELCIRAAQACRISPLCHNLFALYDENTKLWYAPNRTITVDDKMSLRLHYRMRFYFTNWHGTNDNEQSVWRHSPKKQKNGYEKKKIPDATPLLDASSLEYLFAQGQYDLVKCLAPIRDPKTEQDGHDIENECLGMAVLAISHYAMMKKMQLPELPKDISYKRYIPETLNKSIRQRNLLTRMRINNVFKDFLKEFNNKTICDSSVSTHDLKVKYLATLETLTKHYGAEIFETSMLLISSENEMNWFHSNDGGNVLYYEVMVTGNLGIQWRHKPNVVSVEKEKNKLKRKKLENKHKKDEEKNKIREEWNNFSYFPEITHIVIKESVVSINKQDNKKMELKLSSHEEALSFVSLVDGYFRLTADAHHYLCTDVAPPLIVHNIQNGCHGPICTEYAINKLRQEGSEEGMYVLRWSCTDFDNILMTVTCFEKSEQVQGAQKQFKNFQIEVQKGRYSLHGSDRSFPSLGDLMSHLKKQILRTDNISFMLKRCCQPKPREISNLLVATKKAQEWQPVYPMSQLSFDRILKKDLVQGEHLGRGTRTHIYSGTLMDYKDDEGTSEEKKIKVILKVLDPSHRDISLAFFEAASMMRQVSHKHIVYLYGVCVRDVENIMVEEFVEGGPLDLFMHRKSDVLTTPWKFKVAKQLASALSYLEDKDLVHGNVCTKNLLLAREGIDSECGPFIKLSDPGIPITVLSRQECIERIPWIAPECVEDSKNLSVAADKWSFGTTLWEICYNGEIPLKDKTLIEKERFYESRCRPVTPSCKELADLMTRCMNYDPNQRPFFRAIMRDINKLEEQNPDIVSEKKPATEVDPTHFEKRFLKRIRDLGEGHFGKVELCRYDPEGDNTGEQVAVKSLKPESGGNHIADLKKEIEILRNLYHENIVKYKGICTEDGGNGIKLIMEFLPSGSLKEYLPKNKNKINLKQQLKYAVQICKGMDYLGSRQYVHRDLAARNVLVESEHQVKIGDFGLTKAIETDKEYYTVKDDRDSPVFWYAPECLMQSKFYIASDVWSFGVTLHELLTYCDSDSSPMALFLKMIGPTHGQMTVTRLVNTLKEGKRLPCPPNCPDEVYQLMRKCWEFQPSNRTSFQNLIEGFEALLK

For `CCc1cc(O)ccc1-c1ccc2c(-c3nc4c([nH]3)CN(C(C)C)[C@H](C(=O)N3CC(N(C)C)C3)C4)n[nH]c2c1` [Compound 1, (S)-(3-(dimethylamino)azetidin-1-yl)(2-(6-(2-ethyl-4-hydroxyphenyl)-1H-indazol-3-yl)-5-isopropyl-4,5,6,7-tetrahydro-3H-imidazo[4,5-c]pyridin-6-yl)methanone], in “Lung S9 metabolism”, the “Compound Remaining at 60 min (%)” value came out at 81% and the “Sulfate Appearance” value is on record as “Yes”. The “inhibition of IFNγ secretion in mixed lymphocyte reaction (in words)” value in series [1] is “effectively inhibit IFNγ secretion”. For the same molecule, the “Plasma AUC(0-24)” value in series [2] amounted to 943 ng·h/mL.

In the case of `CCc1cc(O)c(F)cc1-c1ccc2c(-c3nc4c([nH]3)CN(C(C)C)[C@H](C(=O)N3CC(N(C)C)C3)C4)n[nH]c2c1` [Compound C-1, (S)-(3-(dimethylamino)azetidin-1-yl)(2-(6-(2-ethyl-5-fluoro-4-hydroxyphenyl)-1H-indazol-3-yl)-5-isopropyl-4,5,6,7-tetrahydro-3H-imidazo[4,5-c]pyridin-6-yl)methanone, reference compound], in “Lung S9 metabolism”, the “Compound Remaining at 60 min (%)” value worked out at 6% and the “Sulfate Appearance” value is on record as “Yes”. Also, the “binding site observed in co-crystal structure” value on human JAK1 is listed as “bind in the ATP binding site”.

Turning to `CCc1cc(O)c(F)cc1-c1ccc2c(-c3nc4c([nH]3)CN(CC)[C@H](C(=O)N3CC(C)(N(C)C)C3)C4)n[nH]c2c1` [Compound C-3, (S)-(3-(dimethylamino)-3-methylazetidin-1-yl)(5-ethyl-2-(6-(2-ethyl-5-fluoro-4-hydroxyphenyl)-1H-indazol-3-yl)-4,5,6,7-tetrahydro-3H-imidazo[4,5-c]pyridin-6-yl)methanone, reference compound], in the series “Lung S9 metabolism”, the “Compound Remaining at 60 min (%)” value turned out to be 5% and the “Sulfate Appearance” value is “Yes”.

Regarding `CCc1cc(O)ccc1-c1ccc2c(-c3nc4c([nH]3)CN(C(C)C)[C@H](C(=O)N3CC(C)(N(C)C)C3)C4)n[nH]c2c1` [Compound 4, (S)-(3-(dimethylamino)-3-methylazetidin-1-yl)(2-(6-(2-ethyl-4-hydroxyphenyl)-1H-indazol-3-yl)-5-isopropyl-4,5,6,7-tetrahydro-3H-imidazo[4,5-c]pyridin-6-yl)methanone], in “Lung S9 metabolism”, the “Compound Remaining at 60 min (%)” value came to 100% and the “Sulfate Appearance” value is “Yes”.

For `CCCN1Cc2[nH]c(-c3n[nH]c4cc(-c5cc(F)c(O)cc5CC)ccc34)nc2C[C@H]1C(=O)N1CC(N(C)C)C1` [Compound C-5, (S)-(3-(dimethylamino)azetidin-1-yl)(2-(6-(2-ethyl-5-fluoro-4-hydroxyphenyl)-1H-indazol-3-yl)-5-propyl-4,5,6,7-tetrahydro-3H-imidazo[4,5-c]pyridin-6-yl)methanone, reference compound], in “Lung S9 metabolism”, the “Compound Remaining at 60 min (%)” value is 5% and the “Sulfate Appearance” value is “Yes”.

On to `CCc1cc(O)ccc1-c1ccc2c(-c3nc4c([nH]3)CN(CC)[C@H](C(=O)N3CC(C)(N(C)C)C3)C4)n[nH]c2c1` [Compound 3, (S)-(3-(dimethylamino)-3-methylazetidin-1-yl)(5-ethyl-2-(6-(2-ethyl-4-hydroxyphenyl)-1H-indazol-3-yl)-4,5,6,7-tetrahydro-3H-imidazo[4,5-c]pyridin-6-yl)methanone], for which, in the series “Lung S9 metabolism”, the “Compound Remaining at 60 min (%)” value amounted to 97% and the “Sulfate Appearance” value was “Yes”.

`CCCN1Cc2[nH]c(-c3n[nH]c4cc(-c5ccc(O)cc5CC)ccc34)nc2C[C@H]1C(=O)N1CC(C)(N(C)C)C1` [Compound 6, (S)-(3-(dimethylamino)-3-methylazetidin-1-yl)(2-(6-(2-ethyl-4-hydroxyphenyl)-1H-indazol-3-yl)-5-propyl-4,5,6,7-tetrahydro-3H-imidazo[4,5-c]pyridin-6-yl)methanone]: in “Lung S9 metabolism”, the “Compound Remaining at 60 min (%)” value was 90% and the “Sulfate Appearance” value is reported as “Yes”.

As to `CCc1cc(O)c(F)cc1-c1ccc2c(-c3nc4c([nH]3)CN(C(C)C)[C@H](C(=O)N3CC(C)(N(C)C)C3)C4)n[nH]c2c1` [Compound C-4, (S)-(3-(dimethylamino)-3-methylazetidin-1-yl)(2-(6-(2-ethyl-5-fluoro-4-hydroxyphenyl)-1H-indazol-3-yl)-5-isopropyl-4,5,6,7-tetrahydro-3H-imidazo[4,5-c]pyridin-6-yl)methanone, reference compound], in the series “Lung S9 metabolism”, the “Compound Remaining at 60 min (%)” value came to 4% and the “Sulfate Appearance” value was “Yes”.

As for `CCCN1Cc2[nH]c(-c3n[nH]c4cc(-c5ccc(O)cc5CC)ccc34)nc2C[C@H]1C(=O)N1CC(N(C)C)C1` [Compound 5, (S)-(3-(dimethylamino)azetidin-1-yl)(2-(6-(2-ethyl-4-hydroxyphenyl)-1H-indazol-3-yl)-5-propyl-4,5,6,7-tetrahydro-3H-imidazo[4,5-c]pyridin-6-yl)methanone], in the series “Lung S9 metabolism”, the “Compound Remaining at 60 min (%)” value is recorded as 96% and the “Sulfate Appearance” value is “Yes”.

On to `CCCN1Cc2[nH]c(-c3n[nH]c4cc(-c5cc(F)c(O)cc5CC)ccc34)nc2C[C@H]1C(=O)N1CC(C)(N(C)C)C1` [Compound C-6, (S)-(3-(dimethylamino)-3-methylazetidin-1-yl)(2-(6-(2-ethyl-5-fluoro-4-hydroxyphenyl)-1H-indazol-3-yl)-5-propyl-4,5,6,7-tetrahydro-3H-imidazo[4,5-c]pyridin-6-yl)methanone, reference compound], for which, in the series “Lung S9 metabolism”, the “Compound Remaining at 60 min (%)” value is 4% and the “Sulfate Appearance” value is “Yes”.

Turning to `CCc1cc(O)c(F)cc1-c1ccc2c(-c3nc4c([nH]3)CN(CC)[C@H](C(=O)N3CC(N(C)C)C3)C4)n[nH]c2c1` [Compound C-2, (S)-(3-(dimethylamino)azetidin-1-yl)(5-ethyl-2-(6-(2-ethyl-5-fluoro-4-hydroxyphenyl)-1H-indazol-3-yl)-4,5,6,7-tetrahydro-3H-imidazo[4,5-c]pyridin-6-yl)methanone, reference compound], in “Lung S9 metabolism”, the “Compound Remaining at 60 min (%)” value is on record as 6% and the “Sulfate Appearance” value was “Yes”.

As for `CCc1cc(O)ccc1-c1ccc2c(-c3nc4c([nH]3)CN(CC)[C@H](C(=O)N3CC(N(C)C)C3)C4)n[nH]c2c1` [Compound 2, (S)-(3-(dimethylamino)azetidin-1-yl)(5-ethyl-2-(6-(2-ethyl-4-hydroxyphenyl)-1H-indazol-3-yl)-4,5,6,7-tetrahydro-3H-imidazo[4,5-c]pyridin-6-yl)methanone], in “Lung S9 metabolism”, the “Compound Remaining at 60 min (%)” value was determined as 98% and the “Sulfate Appearance” value is listed as “Yes”.

For the origin of these results see patent US11634419B2, “Dimethyl amino azetidine amides as JAK inhibitors” (THERAVANCE BIOPHARMA R&D IP, LLC, priority 2018, dated 2023).
